Assays:
[1] = tested on: patient with erectile dysfunction and hypoactive sexual desire disorder; experiment: Treatment of patient with erectile dysfunction and Hypoactive Sexual Desire Disorder, combination with sildenafil (Examples H, P); format: in vivo, human; settings: 3 mg/dose in combination with sildenafil (VIAGRA Tablets) 50 mg/dose, orally about 0.5 hr before sexual activity, 2-3 times per week; after one month
From the text: A 70 kg patient is apparently in good health. They present complaining of a loss of sexual desire and frequent erectile dysfunction since taking an executive position in their company, six weeks previously. They report that they work long hours and feels a high degree of pressure associated with their job. They are frustrated and angry that when they take time off from work they are unable to have an intimate relationship with their spouse. They report that although they are periodically interested in initiating sexual relations, on most occasions they are unable to maintain a high level of interest sufficiently long to initiate or to adequately respond to their spouse's initiating sexual activity. […] They develop a semi-rigid erection at the beginning of sexual activity but detumescence occurs when they attempt penetration. They report that they have few erotic fantasies. They have not masturbated for the past several months. They attribute this to a lack of motivation and interest. […] (5R)-(methylamino)-5,6-dihydro-4H-imidazo[4,5,1-ij]quinolin-2(1H)-one (Z)-2-butenedioate (1:1), 3 mg/dose, and sildenafil (VIAGRA Tablets), 50 mg/dose, are both prescribed. Each is to be taken orally about 0.5 hr before the patient intends to engage in sexual activity. The patient is instructed that they may use the drug combination on a daily basis, if this is the intended frequency of sexual activity. The patient is examined after one month. They report that they take the drug combination 2-3 times per week. […] The patient is advised to continue taking the (5R)-(methylamino)-5,6-dihydro-4H-imidazo[4,5,1-ij]quinolin-2(1H)-one (Z)-2-butenedioate (1:1) for another six months as they adapt to the situational stress associated with their new job. After this time they are advised to stop taking the drug for a period of two weeks to determine whether their sexual motivation and desire have returned to the level they enjoyed prior to the change in jobs.

[2] = tested on: patient with Male Erectile Disorder; experiment: Treatment of Male Erectile Disorder (Examples C, K); format: in vivo, human; settings: 3 mg/dose 0.5 hr before sexual activity; examined after one month; patient report
From the text: A 75 kg, patient has been married for 20 years. They present complaining that for the past six months they have had difficulty maintaining an erection until completion of sexual intercourse. They develop an adequate erection at the beginning of sexual activity but detumescence occurs when they attempt penetration. Their spouse is their only current sexual partner. They report that their spouse is patient and understanding of their problem but that they are embarrassed, feels that they are a failure, and is growing progressively more angry and sad about their inability to maintain an erection. They masturbate approximately twice each month. During masturbation, they are usually able to maintain an erection until they ejaculate. […] The only remarkable findings were a supine diastolic blood pressure 94 mm mercury and a total plasma cholesterol level of 230 mg/dl. They were instructed to follow the American Heart Association dietary recommendations and to reduce their body weight by 5 kg. They currently take no prescription drugs. […] The patient is diagnosed as having Male Erectile Disorder that is acquired and situational. The etiology is most likely due to psychological factors, although combined factors, e.g., mild hypertension or atherosclerosis, may contribute (Diagnostic and Statistical Manual of Mental Disorders, Fourth Edition, 1994). (5R)-(methylamino)-5,6-dihydro-4H-imidazo[4,5,1-ij]quinolin-2(1H)-one (Z)-2-butenedioate (1:1) is prescribed at 3 mg/dose to be taken 0.5 hr before the patient intends to engage in sexual activity. The patient is instructed that they may use the drug on a daily basis, if this is the intended frequency of sexual activity. The patient is examined after one month. They report that they use the drug prior to intercourse. […] The patient is instructed to continue using the drug.

[3] = tested on: patient with Male Orgasmic Disorder; experiment: Treatment of Male Orgasmic Disorder (Examples E, M); format: in vivo, human; settings: 3 mg/dose 0.5-1 hr before sexual activity; examined after one month; patient report
From the text: A 80 kg, person has been married for 15 years. They present complaining that they have begun to have difficulty achieving an orgasm during vaginal intercourse with their spouse. On most occasions they are unable to ejaculate during sexual intercourse. Infrequently, they are able to ejaculate during sexual, but only after very prolonged vaginal intercourse. […] Their further reports that their spouse finds the prolonged intercourse that they require to ejaculate uncomfortable and has begun avoiding sexual relations. They report that they ejaculate normally when they masturbate. […] They currently take no prescription drugs. […] The patient is diagnosed as having Male Orgasmic Disorder that is acquired and situational due to psychological factors (Diagnostic and Statistical Manual of Mental Disorders, Fourth Edition, 1994). (5R)-(methylamino) -5,6-dihydro-4H-imidazo[4,5,1-ij]quinolin-2(1H)-one (Z)-2-butenedioate (1:1) is prescribed at 3 mg/dose to be taken 0.5-1 hr before the patient intends to engage in sexual activity. The patient is instructed that they may use the drug on a daily basis, if this is the intended frequency of sexual activity. The patient is examined after one month. […] The patient is instructed to continue using the drug.

[4] = tested on: male and female Giant Pandas; experiment: Mating of animals of commercial value (Examples F, N); format: in vivo, Giant Panda; settings: 0.05 mg of free base equivalents per kilogram of body weight in diet, one occasion; for induction of mating (treatment effect): one hour after ingesting
From the text: An adult male Giant Panda on temporary loan from a foreign zoo is desired to have breed to an adult female Giant Panda which is normally resident at the zoo. Because of the commercial value of a potential off-spring it is desirable that the animals mate during the time the adult male is on loan. […] As an alternative to anesthetizing the animals for a facilitated transfer of semen between the animals, the male and female Giant Pandas have (5R)-(methylamino)-5,6-dihydro-4H-imidazo[4,5,1-ij]quinolin-2(1H)-one (Z)-2-butenedioate (II) added to their diet on one occasion. The concentration of drug in the diet is calculated to deliver 0.05 mg of free base equivalents of (5R)-(methylamino)-5,6-dihydro-4H-imidazo[4,5,1-ij]quinolin-2(1H)-one (Z)-2-butenedioate (1:1) per kilogram of body weight.

Structure (SMILES)	maintenance of erection [1]	sexual fantasies [1]	sexual motivation [1]	treatment effect (sexual relationship) [1]	ejaculation [2]	maintenance of erection [2]	treatment effect (quality of sexual relationship) [2]	ejaculation during vaginal intercourse [3]	treatment effect (quality of sexual relationship) [3]	pregnancy and birth from the mating [4]	induction of mating (treatment effect) [4]	melting point
CN[C@@H]1Cc2cccc3[nH]c(=O)n(c23)C1.O=C(O)/C=C\C(=O)O [(5R)-(methylamino)-5,6-dihydro-4H-imidazo[4,5,1-ij]quinolin-2(1H)-one (Z)-2-butenedioate (1:1)]	no difficulty maintaining an erection to completion of sexual intercourse	readily has sexual fantasies that are sustained during sexual intercourse	feels motivated to initiate sexual activity	enjoys an improved sexual relationship with their partner	usually experiences intra-vaginal ejaculation	maintains an erection for a satisfactory period after vaginal penetration in almost every attempt at intercourse	markedly improved	ejaculates during vaginal intercourse on all occasions	markedly improved	A pregnancy and subsequent birth of an off-spring results	the animals engage in sexual intercourse	–
CN[C@@H]1Cc2cccc3[nH]c(=S)n(c23)C1 [(5R)-5-(Methylamino)-5,6-dihydro-4H-imidazo[4,5,1-ij]quinoline-2(1H)-thione]	–	–	–	same positive treatment effect	–	–	same positive treatment effect	–	same positive treatment effect	–	same positive treatment effect	210 to 213 °C
